Source: patent US20180099931A1 (AbbVie S.à.r.l., priority 2016, published 2018)
Like-named read-outs stand apart in the source and are kept apart here.

Target: T1, F508delCFTR (Homo sapiens, UniProt P13569, DEL508-508)
T1 construct: expressed in transfected cells; host or cells: CFBE41o- human lung-derived epithelial cells (CFBE4lo-F508delCFTR-HRP), doxycycline-inducible
Assay: Cell Surface Expression-Horse Radish Peroxidase (CSE-HRP) Assay;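 as to Maximum % activity (with co-corrector): co-corrector and positive control are both the same reference corrector at 2 µM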;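 as to Maximum % activity (without co-corrector): percent of the 2 µM on-plate positive control corrector response above DMSO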
Assay type: cell-based
Details: for Maximum % activity (with co-corrector) / Emax: maximum at any tested concentration, normalized to on-plate positive control; for Emax: read-out: Maximum % activity (without co-corrector)

[1] = CSE-HRP, test compound without co-corrector, read-out: EC50 (without co-corrector)
[2] = CSE-HRP, with co-corrector (2 μM of 3-[(2R,4R)-4-({[1-(2,2-difluoro-1,3-benzodioxol-5-yl)cyclopropyl]carbonyl}amino)-7-methoxy-3,4-dihydro-2H-chromen-2-yl]benzoic acid), read-out: EC50 (with co-corrector)
[3] = CSE-HRP, with co-corrector (2 μM)
[4] = test compound without co-corrector, read-out: EC50 (without co-corrector)
[5] = with co-corrector (2 μM of 3-[(2R,4R)-4-({[1-(2,2-difluoro-1,3-benzodioxol-5-yl)cyclopropyl]carbonyl}amino)-7-methoxy-3,4-dihydro-2H-chromen-2-yl]benzoic acid), read-out: EC50 (with co-corrector)
[6] = test compound without co-corrector
[7] = with co-corrector (2 μM of 3-[(2R,4R)-4-({[1-(2,2-difluoro-1,3-benzodioxol-5-yl)cyclopropyl]carbonyl}amino)-7-methoxy-3,4-dihydro-2H-chromen-2-yl]benzoic acid)

T1 sequence (P13569 with tags, fused parts or gaps DEL508-508): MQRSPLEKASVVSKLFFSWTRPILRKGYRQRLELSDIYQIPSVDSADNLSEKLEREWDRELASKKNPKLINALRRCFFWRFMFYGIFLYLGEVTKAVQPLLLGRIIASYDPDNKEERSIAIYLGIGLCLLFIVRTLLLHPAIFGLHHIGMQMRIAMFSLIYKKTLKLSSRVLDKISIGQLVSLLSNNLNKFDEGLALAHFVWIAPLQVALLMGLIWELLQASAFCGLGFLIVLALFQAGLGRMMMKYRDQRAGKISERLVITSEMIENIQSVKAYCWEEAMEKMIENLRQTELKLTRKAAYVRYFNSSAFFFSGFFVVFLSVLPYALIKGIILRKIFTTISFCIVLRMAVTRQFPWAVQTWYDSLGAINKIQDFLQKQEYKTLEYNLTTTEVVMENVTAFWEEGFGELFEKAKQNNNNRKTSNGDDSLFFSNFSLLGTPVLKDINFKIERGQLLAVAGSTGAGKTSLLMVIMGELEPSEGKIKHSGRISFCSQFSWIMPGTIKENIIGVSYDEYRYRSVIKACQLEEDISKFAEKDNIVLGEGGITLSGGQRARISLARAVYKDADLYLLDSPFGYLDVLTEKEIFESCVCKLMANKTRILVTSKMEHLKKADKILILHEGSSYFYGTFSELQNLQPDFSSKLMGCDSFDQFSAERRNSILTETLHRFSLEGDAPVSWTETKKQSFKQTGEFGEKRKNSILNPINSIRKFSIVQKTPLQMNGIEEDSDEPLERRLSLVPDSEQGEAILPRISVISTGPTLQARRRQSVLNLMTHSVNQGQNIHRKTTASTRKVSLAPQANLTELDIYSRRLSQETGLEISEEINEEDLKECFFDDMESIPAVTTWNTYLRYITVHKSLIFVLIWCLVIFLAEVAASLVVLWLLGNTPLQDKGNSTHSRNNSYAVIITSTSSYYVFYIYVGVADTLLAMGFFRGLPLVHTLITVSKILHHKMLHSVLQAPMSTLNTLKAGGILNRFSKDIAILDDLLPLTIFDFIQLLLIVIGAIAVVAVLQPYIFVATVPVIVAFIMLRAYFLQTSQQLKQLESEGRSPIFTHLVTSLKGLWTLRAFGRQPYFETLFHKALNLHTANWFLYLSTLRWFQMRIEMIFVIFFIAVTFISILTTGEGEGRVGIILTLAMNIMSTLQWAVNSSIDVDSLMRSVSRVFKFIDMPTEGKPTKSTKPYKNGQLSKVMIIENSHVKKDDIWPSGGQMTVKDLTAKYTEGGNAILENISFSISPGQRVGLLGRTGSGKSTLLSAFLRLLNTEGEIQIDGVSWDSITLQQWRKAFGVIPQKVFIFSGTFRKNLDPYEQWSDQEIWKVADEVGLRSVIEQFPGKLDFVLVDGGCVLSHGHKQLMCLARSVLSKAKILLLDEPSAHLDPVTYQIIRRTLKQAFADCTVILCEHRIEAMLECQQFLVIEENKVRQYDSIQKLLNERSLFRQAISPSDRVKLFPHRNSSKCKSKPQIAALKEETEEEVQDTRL

Compound | EC50 [1] | EC50 [2] | Maximum % activity (with co-corrector) [3] | Emax (CSE-HRP, without co-corrector) | EC50 [4] | EC50 [5] | Maximum % activity (with co-corrector) (with co-corrector (2 μM)) | Emax (without co-corrector) | Emax [6] | Maximum % activity (with co-corrector) [7]
COc1cc(C(F)(F)F)ccc1CN[C@H]1[C@H](C(C)(C)C)[C@@H](C(=O)O)N(C(=O)C2CCCCC2)[C@H]1c1ccccc1F [II-261] | 1000 to 10000 nM | 1000 to 10000 nM | +++ (≥350) | < 100% | – | – | – | – | – | –
COc1ncc(C2CCC2)cc1CN[C@H]1[C@H](C(C)(C)C)[C@@H](C(=O)O)N(C(=O)OC(C)C)[C@H]1c1ccccc1 [Example I-214] | – | – | – | – | 1000 to 10000 nM | 1000 to 10000 nM | +++ (≥350) | > 200% | – | –
COc1ccc(C(C)(C)C)cc1CN[C@H]1[C@H](C(C)(C)C)[C@@H](C(=O)O)N(C(=O)c2cccnc2C)[C@H]1c1ccccc1 [II-198] | 1000 to 10000 nM | 1000 to 10000 nM | ++ (≥150 and <350) | < 100% | – | – | – | – | – | –
COc1ccc(C(C)(C)C)cc1CN[C@H]1[C@H](C(C)(C)C)[C@@H](C(=O)O)N(C(=O)C2OCCc3ccccc32)[C@H]1c1ccccc1 (stereo partly shown) [II-165] | 1000 to 10000 nM | < 1000 nM | +++ (≥350) | > 200% | – | – | – | – | – | –
COc1ccc(OC(F)(F)F)cc1CN[C@H]1[C@H](C(C)(C)C)[C@@H](C(=O)O)N(C(=O)[C@H](C)c2ccccc2)[C@H]1c1cccnc1OC [II-542] | – | – | – | – | 1000 to 10000 nM | 1000 to 10000 nM | – | – | 100 to 200% | +++ (≥350)
COc1ccc(C(C)(C)C)cc1CN[C@H]1[C@H](C(C)(C)C)[C@@H](C(=O)O)N(C(=O)Cc2cccs2)[C@H]1c1ccccc1 [II-182] | 1000 to 10000 nM | < 1000 nM | +++ (≥350) | > 200% | – | – | – | – | – | –
COc1cc(C(F)(F)F)ccc1CN[C@H]1[C@H](C(C)(C)C)[C@@H](C(=O)O)N(C(=O)OC(C)C)[C@H]1c1ccccc1 [II-487] | – | – | – | – | 1000 to 10000 nM | 1000 to 10000 nM | – | – | > 200% | +++ (≥350)
COc1ccc(C(C)(C)C)cc1CN[C@H]1[C@H](C(C)(C)C)[C@@H](C(=O)O)N(C(=O)C2CCc3ccccc3O2)[C@H]1c1ccccc1 (single isomer, unassigned) [II-164] | < 1000 nM | < 1000 nM | +++ (≥350) | > 200% | – | – | – | – | – | –
COc1ncc(C2CCC2)cc1CN[C@H]1[C@H](C(C)(C)C)[C@@H](C(=O)O)N(C(=O)OC(C)C)[C@H]1c1ccccc1C1CC1 [Example 93, (2S,3S,4S,5S)-3-tert-butyl-4-{[(5-cyclobutyl-2-methoxypyridin-3-yl)methyl]amino}-5-(2-cyclopropylphenyl)-1-{[(propan-2-yl)oxy]carbonyl}pyrrolidine-2-carboxylic acid] | – | – | – | – | 1000 to 10000 nM | < 1000 nM | +++ (≥350) | > 200% | – | –
COc1ccc(C(C)(C)C)cc1CN[C@H]1[C@H](C(C)(C)OC)[C@@H](C(=O)O)N(C(=O)C2CCCCC2)[C@H]1c1ccccc1 [Example I-61] | – | – | – | – | 1000 to 10000 nM | < 1000 nM | +++ (≥350) | > 200% | – | –
COc1ncc(C(F)(F)F)cc1CN[C@H]1[C@H](C23CC(C2)C3)[C@@H](C(=O)O)N(C(=O)C2CCCCC2)[C@H]1c1ccccc1 [Example 57, (2S,3S,4S,5S)-3-(bicyclo[1.1.1.1]pentan-1-yl)-1-(cyclohexanecarbonyl)-4-({[2-methoxy-5-(trifluoromethyl)pyridin-3-yl]methyl}amino)-5-phenylpyrrolidine-2-carboxylic acid] | – | – | – | – | < 1000 nM | < 1000 nM | +++ (≥350) | 100 to 200% | – | –
CC(C)(C)[C@H]1[C@H](NCc2cc(Cl)ccc2OC(F)F)[C@H](c2ccccc2)N(C(=O)C2CCCCC2)[C@@H]1C(=O)O [II-107] | < 1000 nM | 1000 to 10000 nM | +++ (≥350) | < 100% | – | – | – | – | – | –
COc1ccc(SC(F)(F)F)cc1CN[C@H]1[C@H](C(C)(C)C)[C@@H](C(=O)O)N(C(=O)C2CCCCC2)[C@H]1c1ccccc1 [Example I-184] | – | – | – | – | 1000 to 10000 nM | < 1000 nM | +++ (≥350) | 100 to 200% | – | –
COc1ccc(C(C)(C)C)cc1CN[C@H]1[C@H](C(C)(C)C)[C@@H](C(=O)O)N(C(=O)Cc2ccsc2)[C@H]1c1ccccc1 [Example I-92] | – | – | – | – | 1000 to 10000 nM | 1000 to 10000 nM | +++ (≥350) | > 200% | – | –
COc1ccc(C(C)(C)C)cc1CN[C@H]1[C@H](C(C)(C)C)[C@@H](C(=O)O)N(C(=O)c2cnn(-c3ccccc3C)c2C)[C@H]1c1ccccc1 [II-228] | < 1000 nM | < 1000 nM | +++ (≥350) | > 200% | – | – | – | – | – | –
CC(C)(C)[C@H]1[C@H](Nc2cc(C(F)(F)F)cc(C(F)(F)F)c2)[C@H](c2ccccc2)N(C(=O)C2CCCCC2)[C@@H]1C(=O)O [II-148] | < 1000 nM | < 1000 nM | +++ (≥350) | 100 to 200% | – | – | – | – | – | –
COc1ccc(C(F)(F)F)cc1CN[C@H]1[C@H](C(C)(C)C)[C@@H](C(=O)O)N(C(=O)[C@@H]2CCCO2)[C@H]1c1ccccc1C(C)C [II-595] | – | – | – | – | < 1000 nM | < 1000 nM | – | – | > 200% | +++ (≥350)
COc1ncc(Br)cc1CN[C@H]1[C@H](C(C)(C)C)[C@@H](C(=O)O)N(C(=O)C2CCCCC2)[C@H]1c1ccccc1F [II-263] | 1000 to 10000 nM | 1000 to 10000 nM | +++ (≥350) | < 100% | – | – | – | – | – | –
COc1ccc(-c2ccccc2)cc1CN[C@H]1[C@H](C(C)(C)C)[C@@H](C(=O)O)N(C(=O)OC(C)C)[C@H]1c1ccccc1 [II-160] | 1000 to 10000 nM | < 1000 nM | +++ (≥350) | > 200% | – | – | – | – | – | –

The next lines start with the values.

EC50 [1] | EC50 [2] | Maximum % activity (with co-corrector) [3] | Emax (CSE-HRP, without co-corrector) | EC50 [4] | EC50 [5] | Maximum % activity (with co-corrector) (with co-corrector (2 μM)) | Emax (without co-corrector) | Emax [6] | Maximum % activity (with co-corrector) [7] | Compound
– | – | – | – | 1000 to 10000 nM | 1000 to 10000 nM | – | – | 100 to 200% | +++ (≥350) | COc1ncc(C(F)(F)F)cc1CN[C@@H]1[C@@H](C(C)(C)C)[C@H](C(=O)O)N(C(=O)C2CCCCC2)[C@@H]1c1ccccc1 (racemic) [III-81]
– | – | – | – | > 10000 nM | 1000 to 10000 nM | ++ (≥150 and <350) | – | < 100% | – | CC(C)(C)[C@H]1[C@H](Nc2cc(C#N)cc(Cl)n2)[C@H](c2ccccc2)N(C(=O)C2CCCCC2)[C@@H]1C(=O)O [III-146]
– | – | – | – | < 1000 nM | < 1000 nM | +++ (≥350) | – | > 200% | – | COc1ccc(C(C)(C)C)cc1CN[C@H]1[C@H](C(C)(C)C)[C@@H](C(=O)O)N(C(=O)C2CCCC2(C)C)[C@H]1c1ccccc1 (stereo partly shown) [III-204]
– | – | – | – | 1000 to 10000 nM | 1000 to 10000 nM | – | – | 100 to 200% | +++ (≥350) | COc1ccc(C(F)(F)F)cc1CN[C@@H]1[C@@H](C(C)(C)C)[C@H](C(=O)O)N(C(=O)C2CCCCC2)[C@@H]1c1cccnc1N(C)C (racemic) [III-41]
– | – | – | – | > 10000 nM | 1000 to 10000 nM | ++ (≥150 and <350) | – | < 100% | – | CC(C)(C)[C@H]1[C@H](Nc2ccc(C3(C#N)CC3)cn2)[C@H](c2ccccc2)N(C(=O)C2CCCCC2)[C@@H]1C(=O)O [III-159]
– | – | – | – | 1000 to 10000 nM | 1000 to 10000 nM | +++ (≥350) | – | 100 to 200% | – | COc1ccc(Cl)cc1CN[C@@H]1[C@@H](C(C)(C)C)[C@H](C(=O)O)N(C(=O)C2CCCCC2)[C@@H]1c1cccnc1N(C)C (racemic) [III-94]
– | – | – | – | > 10000 nM | 1000 to 10000 nM | – | – | < 100% | ++ (≥150 and <350) | Cc1cc(C(F)(F)F)cc(N[C@@H]2[C@@H](C(C)(C)C)[C@H](C(=O)NS(C)(=O)=O)N(C(=O)C3CCCCC3)[C@@H]2c2ccccc2)n1 (racemic) [III-56]
– | – | – | – | 1000 to 10000 nM | 1000 to 10000 nM | – | – | < 100% | +++ (≥350) | CC(C)OC(=O)N1[C@H](c2ccccc2)[C@H](Nc2cc(C(F)(F)F)ccn2)[C@@H](C(C)(C)C)[C@@H]1C(=O)O (racemic) [III-38]
– | – | – | – | > 10000 nM | 1000 to 10000 nM | ++ (≥150 and <350) | – | < 100% | – | CC(C)(C)[C@H]1[C@H](NCc2ccc3occc3c2)[C@H](c2ccccc2)N(C(=O)C2CCCCC2)[C@@H]1C(=O)O [III-135]
– | – | – | – | 1000 to 10000 nM | 1000 to 10000 nM | +++ (≥350) | – | 100 to 200% | – | COc1ccc(C23CC(C2)C3)cc1CN[C@H]1[C@H](C(C)(C)C)[C@@H](C(=O)O)N(C(=O)OC(C)C)[C@H]1c1cccnc1OC(F)F [III-218]
– | – | – | – | > 10000 nM | > 10000 nM | – | – | < 100% | + (<150) | COc1ccncc1CN[C@@H]1[C@@H](C(C)(C)C)[C@H](C(=O)O)N(C(=O)C2CCCCC2)[C@@H]1c1ccccc1 (racemic) [III-16]
– | – | – | – | 1000 to 10000 nM | < 1000 nM | +++ (≥350) | – | > 200% | – | COc1ccc(C(C)(C)C)cc1CN[C@H]1[C@H](C(C)(C)C)[C@@H](C(=O)O)N(C(=O)Cc2ccc(F)cc2F)[C@H]1c1ccccc1 [III-173]
